Assay results published in patent publication US7915276B2, “Berberrubine derivatives having antifungal activities” (priority 2006, dated 2011).
In brackets after ≈: the same amount, converted by molar mass.

Experiments:
[1] = biological target: T1, chitin synthase 1 of Candida albicans chs2 Δ chs 3 Δ (Candida albicans, UniProt P23316); assay: In vitro enzyme assay for chitin synthase 1 of Candida albicans (enzyme 1); format: biochemical; settings: relative to polyoxin D (50% inhibitory activity = value 5)
T1 construct: Crude enzyme was prepared using the Candida albicans chs2 Δ chs 3 Δ mutant; endogenous in cells; host or cells: Candida albicans chs2Δ/chs2Δ chs3Δ/chs3Δ mutant; 130,000 x g membrane pellet
Description: Crude enzyme was prepared using the Candida albicans chs2 Δ chs 3 Δ mutant (chs2 Δ::hisG/chs2 Δ::hisG chs3 Δ::hisG/chs3 Δ::hisG) strain, which can only produce the chitin synthase 1. The strain was inoculated with the SDA (Sabouraud dextrose agar) culture medium (4% dextrose, 1% peptone, pH 5.6) and cultured at 30° C. for 15-17 hours until the absorbance at 550nm reaches 0.7. The cells were collected and suspended in a 50 mM Tris-HCl (pH 7.5) buffer solution containing 5 mM magnesium acetate. After centrifugation at 8,000×g for 10 minutes, the pellets were suspended in the same Tris-HCl buffer solution. The suspension was divided into aliquots in 50 mL conical test tubes. After adding glass beads, the cells were disrupted by vigorously vortexing with an interval of 30 seconds. The cell residues were removed by centrifuging at 3,000×g for 5 minutes. The supernatant was ultra-centrifuged at 130,000×g for 1 hour. The resultant pellets were collected and suspended in 50 mM Tris-HCl (pH 7.5) containing 33% glycerol, to a final volume of 1.6 mg/g (wet weight) of yeast used. The suspension was divided into aliquots and kept at −70° C. until it is used.
(§1) The inhibitory activities against the chitin synthase 1 of Candida albicans chs2 Δ chs 3 Δ (abbreviated as ‘enzyme 1’) and the chitin synthase 2 of Saccharomyces cerevisiae ECY38-38A(pAS6)(abbreviated as ‘enzyme 2’) was examined for compound Nos. 1 to 70 compound and polyoxin D, a positive control compound.
(§2) The inhibitory activity against the chitin synthase 1 prepared from Candida albicans and the chitin synthase 2 prepared from Saccharomyces cerevisiae were examined as follows. A reaction mixture containing 32 mM Tris-HCl (pH 7.5), 2 mM cobalt acetate, 1.1 mM UDP-[U-^14C]-N-acetyl-d-glucosamine (GlcNAc) (400,000 cpm/μmol), 2 μL of trypsin (0.75 mg/mL), 20 μL of each crude enzyme and 14 μL of each test sample was kept at 30° C. for 15 minutes to activate the enzyme. Then, 2 μL of trypsin inhibitor (1.5 mg/mL) was added and the mixture was kept in an ice bath for 10 minutes to deactivate trypsin. 2 μL of 0.8 M N-acetyl-d-glucosamine was added to a total volume of 50 μL and reaction was performed at 30° C. for 90 minutes. The reaction was stopped using 1 mL of 10% TCA solution and the reaction solution was filtered with a GF/C filter and dried at room temperature. After adding 3 mL of a scintillation cocktail solution, the amount of isotopes was measured using a liquid scintillation counter. Percentage inhibition against each enzyme was calculated by the following Equation 1.
(§3) The control group was not added with a test sample in the reaction mixture and that of the untreated group contained neither the test sample nor the crude enzyme.
(§4) A 50% inhibitory activity of polyoxin D against the enzyme was given the value 5. A compound having the same inhibitory activity as that of polyoxin D at the same concentration was given the value 5. Compounds having the inhibitory activity at 2-fold, 4-fold, 8-fold and 16-fold higher concentrations than that of polyoxin D were given the values of 4, 3, 2 and 1, respectively. On the other hand, compounds having the inhibitory activity at ½, ¼ and ⅛ lower concentrations than that of polyoxin D were given the values of 6, 7 and 8, respectively.

[2] = biological target: T2, chitin synthase 2 of Saccharomyces cerevisiae ECY38-38A(pAS6) (Saccharomyces cerevisiae, UniProt P14180); assay: In vitro enzyme assay for chitin synthase 2 of Saccharomyces cerevisiae (enzyme 2); format: biochemical; settings: relative to polyoxin D (50% inhibitory activity = value 5)
T2 construct: made in house; host or cells: Saccharomyces cerevisiae ECY38-38A (chs1-23 chs2::LEU2 cal1/csd2) carrying plasmid pAS6, grown in galactose medium; 130,000 x g membrane pellet
Description: Crude enzyme was prepared using the recombinant Saccharomyces cerevisiae ECY38-38A(pAS6) (MATa chs1-23 chs2::LEU2 cal 1/csd 2 ura 3-52 trp 1-1 leu 2-2 pAS6) strain, which can produce the chitin synthase 2 only. The strain was inoculated with the YPG culture medium (1% yeast extract, 2% peptone, 2% galactose) and cultured at 30° C. overnight. Then, it was inoculated with a fresh YPG culture medium and cultured for 15-17 hours until the Absorbance at 550 nm reaches 1.0. The cells were collected and suspended in 50 mM Tris-HCl (pH 7.5) buffer containing 5 mM magnesium acetate. After centrifugation at 8,000×g for 10 minutes, the pellets were suspended in the same Tris-HCl buffer solution. The suspension was divided into aliquots in 50 mL conical test tubes. After adding the glass beads, the cells were disrupted by vigorously vortexing with an interval of 30 seconds. The cell residues were removed by centrifuging at 3,000×g for 5 minutes. The supernatant was ultra-centrifuged at 130,000×g for 1 hour. The resultant pellets were collected and suspended in 50 mM Tris-HCl (pH 7.5) containing 33% glycerol, to a final volume of 1.6 mg/g (wet weight) of yeast used. The suspension was divided into aliquots and kept at −70° C. until it is used.
as §1, §2, §3, §4

[3] = test system: Aspergillus flavus ATCC 64025; assay: In vitro antifungal activity (MIC), NCCLS method; format: cell-based; settings: 48 hours
From the text: (§5) Candida albicans ATCC 10231, Candida lusitaniae ATCC 42720, Candida krusei ATCC 6258, Candida tropicalis ATCC 13803, Candida glabrata ATCC 48435, Candida parapsilosis ATCC 34136, Cryptococcus neoformans ATCC 36556, Aspergillus fumigatus ATCC 16424, Aspergillus flavus ATCC 64025, Aspergillus terreus ATCC 46941 and Mucor ramosissimus ATCC 90286 strains for the MIC (minimum inhibitory concentration) measurement were obtained from ATCC (American Type Culture Collection) in the U.S. The Candida albicans A207(clinical isolate) strain was used by isolating it from the patients.
(§6) The determination of MIC was performed according to the NCCLS (National Committee for Clinical Laboratory Standard) method. Each test sample solution was diluted two-fold and inoculated with a fungal suspension to reach a final inoculum size of 5×10^2 to 2.5×10^3 cell/mL. The Cryptococcus neoformans strain was cultured in the RPMI 1640 medium for 72 hours. Other strains were cultured for 48 hours.

[4] = test system: Aspergillus terreus ATCC 46941; assay: In vitro antifungal activity (MIC), NCCLS method; format: cell-based; settings: 48 hours
From the text: as §5, §6

[5] = test system: Candida parapsilosis ATCC 34136; assay: In vitro antifungal activity (MIC), NCCLS method; format: cell-based; settings: Candida parapsilosis ATCC 34136; 48 hours
From the text: as §5, §6

[6] = test system: Mucor ramosissimus ATCC 90286; assay: In vitro antifungal activity (MIC), NCCLS method; format: cell-based; settings: 48 hours
From the text: as §5, §6

Candida krusei ATCC 6258 = assay: In vitro antifungal activity (MIC), NCCLS method; format: cell-based; settings: 48 hours
From the text: as §5, §6

[7] = test system: Aspergillus fumigatus ATCC 16424; assay: In vitro antifungal activity (MIC), NCCLS method; format: cell-based; settings: 48 hours
From the text: as §5, §6

[8] = test system: Candida albicans ATCC 10231; assay: In vitro antifungal activity (MIC), NCCLS method; format: cell-based; settings: 48 hours
From the text: as §5, §6

[9] = test system: Cryptococcus neoformans ATCC 36556; assay: In vitro antifungal activity (MIC), NCCLS method; format: cell-based; settings: RPMI 1640 medium, 72 hours
From the text: as §5, §6

[10] = test system: Candida tropicalis ATCC 13803; assay: In vitro antifungal activity (MIC), NCCLS method; format: cell-based; settings: 48 hours
From the text: as §5, §6

[11] = test system: Candida lusitaniae ATCC 42720; assay: In vitro antifungal activity (MIC), NCCLS method; format: cell-based; settings: 48 hours
From the text: as §5, §6

[12] = test system: Candida albicans A207 (clinical isolate); assay: In vitro antifungal activity (MIC), NCCLS method; format: cell-based; settings: 48 hours
From the text: as §5, §6

[13] = test system: Candida glabrata ATCC 48435; assay: In vitro antifungal activity (MIC), NCCLS method; format: cell-based; settings: Candida glabrata ATCC 48435; 48 hours
From the text: as §5, §6

T1 sequence (P23316 whole entry, stated change not applied): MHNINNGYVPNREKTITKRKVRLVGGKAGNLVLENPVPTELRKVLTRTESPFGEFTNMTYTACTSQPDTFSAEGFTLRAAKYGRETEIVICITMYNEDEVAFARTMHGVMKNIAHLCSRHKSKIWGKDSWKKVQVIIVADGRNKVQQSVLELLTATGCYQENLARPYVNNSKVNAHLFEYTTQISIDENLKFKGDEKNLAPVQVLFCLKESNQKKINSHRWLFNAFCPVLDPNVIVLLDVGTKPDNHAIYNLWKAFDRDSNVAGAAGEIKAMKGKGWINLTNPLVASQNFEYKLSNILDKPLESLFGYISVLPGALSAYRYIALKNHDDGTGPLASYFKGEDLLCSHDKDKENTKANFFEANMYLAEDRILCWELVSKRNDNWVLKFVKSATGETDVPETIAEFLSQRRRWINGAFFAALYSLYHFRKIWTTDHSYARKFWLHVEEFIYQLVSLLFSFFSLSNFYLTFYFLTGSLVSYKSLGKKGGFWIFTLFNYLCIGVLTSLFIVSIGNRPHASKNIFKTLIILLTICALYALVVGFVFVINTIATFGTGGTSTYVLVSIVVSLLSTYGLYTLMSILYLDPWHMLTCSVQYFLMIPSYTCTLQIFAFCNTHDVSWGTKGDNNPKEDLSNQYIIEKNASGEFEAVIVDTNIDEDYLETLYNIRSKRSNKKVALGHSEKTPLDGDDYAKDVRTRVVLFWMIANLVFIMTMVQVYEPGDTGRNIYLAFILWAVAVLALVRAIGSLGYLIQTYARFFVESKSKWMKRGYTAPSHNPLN
T2 sequence (P14180 whole entry): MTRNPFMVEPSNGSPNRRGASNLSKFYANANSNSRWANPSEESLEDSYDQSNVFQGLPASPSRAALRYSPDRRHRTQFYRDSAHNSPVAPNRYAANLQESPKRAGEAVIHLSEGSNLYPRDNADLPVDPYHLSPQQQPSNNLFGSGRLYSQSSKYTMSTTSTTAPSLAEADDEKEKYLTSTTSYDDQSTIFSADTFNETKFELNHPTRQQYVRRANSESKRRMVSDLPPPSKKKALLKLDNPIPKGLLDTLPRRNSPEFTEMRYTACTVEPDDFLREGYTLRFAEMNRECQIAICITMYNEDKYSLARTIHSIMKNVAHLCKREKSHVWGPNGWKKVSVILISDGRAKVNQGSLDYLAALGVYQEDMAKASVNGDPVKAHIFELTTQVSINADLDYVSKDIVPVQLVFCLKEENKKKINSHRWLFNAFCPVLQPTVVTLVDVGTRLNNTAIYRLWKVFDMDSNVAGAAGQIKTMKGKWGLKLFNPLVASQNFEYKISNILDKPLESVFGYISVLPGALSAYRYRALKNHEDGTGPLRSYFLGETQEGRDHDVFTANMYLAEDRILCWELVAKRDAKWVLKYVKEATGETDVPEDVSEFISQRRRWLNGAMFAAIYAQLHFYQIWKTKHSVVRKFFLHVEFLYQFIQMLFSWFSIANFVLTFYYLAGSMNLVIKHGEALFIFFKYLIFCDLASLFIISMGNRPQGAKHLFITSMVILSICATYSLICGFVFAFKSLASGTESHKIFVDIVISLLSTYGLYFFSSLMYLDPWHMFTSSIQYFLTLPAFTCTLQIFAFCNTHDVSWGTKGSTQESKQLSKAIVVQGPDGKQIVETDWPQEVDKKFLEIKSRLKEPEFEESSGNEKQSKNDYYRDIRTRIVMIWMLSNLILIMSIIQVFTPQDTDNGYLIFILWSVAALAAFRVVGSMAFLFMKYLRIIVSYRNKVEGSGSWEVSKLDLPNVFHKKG

## COc1ccc2c(Cc3ccc(C(F)(F)F)cc3)c3[n+](cc2c1OCc1ccc(C(C)(C)C)cc1)CCc1cc2c(cc1-3)OCO2.[Br-] [Compound No. 38, 13-(4-Trifluoromethylbenzyl)-9-O-(4-tert-butylbenzyl)berberrubine bromide]
[1]
  Relative activity Enzyme 1: 2 (Compounds having the inhibitory activity at 2-fold, 4-fold, 8-fold and 16-fold higher concentrations than that of polyoxin D were given the values of 4, 3, 2 and 1, respectively)
[2]
  Relative activity Enzyme 2: 5 (A compound having the same inhibitory activity as that of polyoxin D at the same concentration was given the value 5)

## COc1ccc2c(Cc3cc(F)c(F)c(F)c3)c3[n+](cc2c1OCc1ccc(C(C)(C)C)cc1)CCc1cc2c(cc1-3)OCO2.[Cl-] [Compound No. 61, 13-(3,4,5-Trifluorobenzyl)-9-O-(4-tert-butylbenzyl)berberrubine chloride]
[1]
  Relative activity Enzyme 1: 2 (Compounds having the inhibitory activity at 2-fold, 4-fold, 8-fold and 16-fold higher concentrations than that of polyoxin D were given the values of 4, 3, 2 and 1, respectively)
[2]
  Relative activity Enzyme 2: 4 (Compounds having the inhibitory activity at 2-fold, 4-fold, 8-fold and 16-fold higher concentrations than that of polyoxin D were given the values of 4, 3, 2 and 1, respectively)

## COc1cc(Cc2c3[n+](cc4c(OCc5ccc(C(C)(C)C)cc5)c(OC)ccc24)CCc2cc4c(cc2-3)OCO4)cc(OC)c1OC.[Cl-] [Compound No. 64, 13-(3,4,5-Trimethoxybenzyl)-9-O-(4-tert-butylbenzyl)berberrubine chloride]
[1]
  Relative activity Enzyme 1: 2 (Compounds having the inhibitory activity at 2-fold, 4-fold, 8-fold and 16-fold higher concentrations than that of polyoxin D were given the values of 4, 3, 2 and 1, respectively)
[2]
  Relative activity Enzyme 2: 4 (Compounds having the inhibitory activity at 2-fold, 4-fold, 8-fold and 16-fold higher concentrations than that of polyoxin D were given the values of 4, 3, 2 and 1, respectively)

## COc1ccc2c(Cc3ccc(OC(F)(F)F)cc3)c3[n+](cc2c1OCc1ccc(C(C)(C)C)cc1)CCc1cc2c(cc1-3)OCO2.[Cl-] [Compound No. 67, 13-(4-Trifluoromethoxybenzyl)-9-O-(4-tert-butylbenzyl)berberrubine chloride]
[1]
  Relative activity Enzyme 1: 2 (Compounds having the inhibitory activity at 2-fold, 4-fold, 8-fold and 16-fold higher concentrations than that of polyoxin D were given the values of 4, 3, 2 and 1, respectively)
[2]
  Relative activity Enzyme 2: 5 (A compound having the same inhibitory activity as that of polyoxin D at the same concentration was given the value 5)

## COc1ccc2c(Cc3ccc(C(F)(F)F)cc3)c3[n+](cc2c1OCc1ccc(C(C)(C)C)cc1)CCc1cc2c(cc1-3)OCO2.[Cl-] [Compound No. 70, 13-(4-Trifluoromethylbenzyl)-9-O-(4-tert-butylbenzyl)berberrubine chloride]
[1]
  Relative activity Enzyme 1: 2 (Compounds having the inhibitory activity at 2-fold, 4-fold, 8-fold and 16-fold higher concentrations than that of polyoxin D were given the values of 4, 3, 2 and 1, respectively)
[2]
  Relative activity Enzyme 2: 5 (A compound having the same inhibitory activity as that of polyoxin D at the same concentration was given the value 5)

## C[C@@H]1[C@H](O)[C@@H](C)/C=C/C=C/C=C/C=C/C=C/C=C/C=C/[C@H](O[C@@H]2O[C@H](C)[C@@H](O)[C@H](N)[C@@H]2O)C[C@@H]2O[C@](O)(C[C@@H](O)C[C@@H](O)[C@H](O)CC[C@@H](O)C[C@@H](O)CC(=O)O[C@H]1C)C[C@H](O)[C@H]2C(=O)O [amphotericin B, reference compound]
[3]
  MIC (minimum inhibitory concentration): 4 µg/mL (≈ 4.33 µM)
[4]
  MIC (minimum inhibitory concentration): 16 µg/mL (≈ 17.3 µM)
[5]
  MIC (minimum inhibitory concentration): 0.5 µg/mL (≈ 0.541 µM)
[6]
  MIC (minimum inhibitory concentration): 0.5 µg/mL (≈ 0.541 µM)
Candida krusei ATCC 6258
  MIC (minimum inhibitory concentration): 0.5 µg/mL (≈ 0.541 µM)
[7]
  MIC (minimum inhibitory concentration): 1 µg/mL (≈ 1.08 µM)
[8]
  MIC (minimum inhibitory concentration): 0.5 µg/mL (≈ 0.541 µM)
[9]
  MIC (minimum inhibitory concentration): 0.125 µg/mL (≈ 0.135 µM)
[10]
  MIC (minimum inhibitory concentration): 0.5 µg/mL (≈ 0.541 µM)
[11]
  MIC (minimum inhibitory concentration): 1 µg/mL (≈ 1.08 µM)
[12]
  MIC (minimum inhibitory concentration): 0.5 µg/mL (≈ 0.541 µM)
[13]
  MIC (minimum inhibitory concentration): 1 µg/mL (≈ 1.08 µM)
